Source: patent US20260242373A1, “NBD1 MODULATORS AND METHODS OF USING THE SAME” (Sionna Therapeutics Inc., priority 2023, published 2026)

System: NBD1
Assay: Aggregation analysis of NBD1 thermal stability by differential static light scattering (DSLS)
Format: binding, Human
Conditions: 100 μM compound; ΔTagg versus DMSO control
Protocol: Purified recombinant NBD1 was produced using previously described methods (A. Schmidt, J. L. Mendoza, P. J. Thomas (2011) Biochemical and Biophysical Approaches to Probe CFTR Structure (365-376) M. D. Amaral, K. Kunzelmann (eds.), Cystic Fibrosis, Methods in Molecular Biology 741, Springer Science+Business Media). The effect of test compounds on thermal stability of NBD1 was evaluated by differential static light scattering (DSLS) using the Harbinger Stargazer-384 instrument (Epiphyte Three, Toronto, Canada). Test compounds were dissolved and diluted to desired concentrations in 100% DMSO. The compounds or DMSO controls (100 nL) were stamped into wells of a […] low volume optical plate (Corning Inc., Corning, NY) using the Echo 555 acoustic liquid handler (Labcyte Inc., San Jose, CA).
NBD1 protein was diluted to 0.2 mg/ml in S200 buffer (50 mM Tris-HCl, 150 mM NaCl, 5 mM MgCl2, 2 mM ATP, 2 mM DTT, pH7.6) containing 1% glycerol. 10 uL of protein solution was aliquoted into the 384-well plate harboring the test compounds and 10 uL mineral oil was overlayed onto the protein solution, using the epMotion robotic liquid handler (Eppendorf North America, Hauppauge, NY). After placing into the Stargazer instrument, the plate was heated at 1° C. per minute to 70° C. Images were captured from 25° C. to 70° C. every 0.5° C. At the end of the experiment run, instrument software integrated image files and analyzed data automatically. A […] regression curve was generated for each well, representing the increase in light scattering over time. A temperature of aggregation (Tagg) was calculated based on the inflection point of the curve. To better compare data across experiments the average Tagg for DMSO control wells was calculated and subtracted from values for wells containing compounds to obtain a “ΔTagg” value. These ΔTagg values reflect stabilizing efficacy of the compounds.

| SMILES | DSLS NBD1/3D Human Stability delta-T (° C.) @ 100 (μM) |
| --- | --- |
| Cn1nccc1C(O)c1cnc(-c2cccc(Oc3ccc4[nH]ccc4n3)c2)[nH]1 (stereo not shown) [Compound 33, (2-(3-((1H-pyrrolo[3,2-b]pyridin-5-yl)oxy)phenyl)-1H-imidazol-5-yl)(1-methyl-1H-pyrazol-5-yl)methanol] | C (C: ≤4° C.) |
| OC(Cc1nccs1)c1cnc(-c2cccc(Oc3ccc4[nH]cnc4c3)c2)[nH]1 (stereo not shown) [Compound 34, 1-(2-(3-((1H-benzo[d]imidazol-5-yl)oxy)phenyl)-1H-imidazol-5-yl)-2-(thiazol-2-yl)ethan-1-ol] | C (C: ≤4° C.) |
| Cc1ncc(C(O)c2nnc(-c3cccc(Oc4ccc5[nH]cnc5c4)c3)[nH]2)s1 (stereo not shown) [Compound 35, (5-(3-((1H-benzo[d]imidazol-5-yl)oxy)phenyl)-4H-1,2,4-triazol-3-yl)(2-methylthiazol-5-yl)methanol] | C (C: ≤4° C.) |
| Cc1ncc(C(N)c2nnc(-c3cccc(Oc4ccc5[nH]cnc5c4)c3)[nH]2)s1 (stereo not shown) [Compound 36, (5-(3-((1H-benzo[d]imidazol-5-yl)oxy)phenyl)-4H-1,2,4-triazol-3-yl)(2-methylthiazol-5-yl)methanamine] | C (C: ≤4° C.) |
| Cc1ncc(C(O)c2nnc(-c3cccc(Oc4ccc5[nH]ccc5c4CO)c3)[nH]2)s1 (stereo not shown) [Compound 37, (5-(3-((4-(hydroxymethyl)-1H-indol-5-yl)oxy)phenyl)-4H-1,2,4-triazol-3-yl)(2-methylthiazol-5-yl)methanol] | B (B: 4-8° C.) |
| Cc1ncc(C(O)c2nnc(-c3cccc(Oc4ccc5[nH]ccc5c4C(=O)O)c3)[nH]2)s1 (stereo not shown) [Compound 38, 5-(3-(5-(hydroxy(2-methylthiazol-5-yl)methyl)-4H-1,2,4-triazol-3-yl)phenoxy)-1H-indole-4-carboxylic acid] | C (C: ≤4° C.) |
| Cc1ncc(C(O)c2nnc(-c3cccc(Oc4ccc5[nH]ccc5c4C(N)=O)c3)[nH]2)s1 (stereo not shown) [Compound 39, 5-(3-(5-(hydroxy(2-methylthiazol-5-yl)methyl)-4H-1,2,4-triazol-3-yl)phenoxy)-1H-indole-4-carboxamide] | B (B: 4-8° C.) |
| OCc1c(Oc2cccc(-c3nnc(C(O)c4cncs4)[nH]3)c2)ccc2[nH]ccc12 (stereo not shown) [Compound 40, (5-(3-((4-(hydroxymethyl)-1H-indol-5-yl)oxy)phenyl)-4H-1,2,4-triazol-3-yl)(thiazol-5-yl)methanol] | B (B: 4-8° C.) |
| CN(C)CCNC(=O)c1c(Oc2cccc(-c3nnc(C(O)c4cncs4)[nH]3)c2)ccc2[nH]ccc12 (stereo not shown) [Compound 41, N-(2-(dimethylamino)ethyl)-5-(3-(5-(hydroxy(thiazol-5-yl)methyl)-4H-1,2,4-triazol-3-yl)phenoxy)-1H-indole-4-carboxamide] | C (C: ≤4° C.) |
| O=C(NCC(O)C(F)(F)F)c1c(Oc2cccc(-c3nnc(C(O)c4cncs4)[nH]3)c2)ccc2[nH]ccc12 (stereo not shown) [Compound 42, 5-(3-(5-(hydroxy(thiazol-5-yl)methyl)-4H-1,2,4-triazol-3-yl)phenoxy)-N-(3,3,3-trifluoro-2-hydroxypropyl)-1H-indole-4-carboxamide] | B (B: 4-8° C.) |
| O=C(O)CCc1ccc(Cc2cnc(-c3cc(Oc4c(F)cc5[nH]ccc5c4F)ccc3F)[nH]2)s1 [Compound 43, 3-(5-((2-(5-((4,6-difluoro-1H-indol-5-yl)oxy)-2-fluorophenyl)-1H-imidazol-5-yl)methyl)thiophen-2-yl)propanoic acid] | A (A: T ≥8° C.) |
| CC(c1cccc(CCC(=O)O)c1F)c1nc(-c2cc(Oc3c(F)cc4[nH]ccc4c3F)ccc2F)n2ccccc12 (stereo not shown) [Compound 46, 3-(3-(1-(3-(5-((4,6-difluoro-1H-indol-5-yl)oxy)-2-fluorophenyl)imidazo[1,5-a]pyridin-1-yl)ethyl)-2-fluorophenyl)propanoic acid] | C (C: ≤4° C.) |
| CC(c1cccc(CCC(=O)O)c1F)c1nc(-c2cc(Oc3c(F)cc4[nH]ccc4c3F)ccc2F)n2c1CCCC2 (stereo not shown) [Compound 47, 3-(3-(1-(3-(5-((4,6-difluoro-1H-indol-5-yl)oxy)-2-fluorophenyl)-5,6,7,8-tetrahydroimidazo[1,5-a]pyridin-1-yl)ethyl)-2-fluorophenyl)propanoic acid] | C (C: ≤4° C.) |
| CC(c1cc(N)n(-c2cc(Oc3c(F)cc4[nH]ccc4c3F)ccc2F)n1)c1cccc(CCC(=O)O)c1F (stereo not shown) [Compound 48, 3-(3-(1-(5-amino-1-(5-((4,6-difluoro-1H-indol-5-yl)oxy)-2-fluorophenyl)-1H-pyrazol-3-yl)ethyl)-2-fluorophenyl)propanoic acid] | B (B: 4-8° C.) |
| CCOc1cc(C(C)c2cccc(CCC(=O)O)c2F)nn1-c1cc(Oc2c(F)cc3[nH]ccc3c2F)ccc1F (stereo not shown) [Compound 49, 3-(3-(1-(1-(5-((4,6-Difluoro-1H-indol-5-yl)oxy)-2-fluorophenyl)-5-ethoxy-1H-pyrazol-3-yl)ethyl)-2-fluorophenyl)propanoic acid] | B (B: 4-8° C.) |
| COc1cc(C(C)c2cccc(CCC(=O)O)c2F)nn1-c1cc(Oc2c(F)cc3[nH]ccc3c2F)ccc1F (stereo not shown) [Compound 50, 3-(3-(1-(1-(5-((4,6-difluoro-1H-indol-5-yl)oxy)-2-fluorophenyl)-5-methoxy-1H-pyrazol-3-yl)ethyl)-2-fluorophenyl)propanoic acid] | B (B: 4-8° C.) |
| CC(C1=NN(c2cc(Oc3c(F)cc4[nH]ccc4c3F)ccc2F)C(=O)C1)c1cccc(CCC(=O)O)c1F (stereo not shown) [Compound 51, 3-(3-(1-(1-(5-((4,6-difluoro-1H-indol-5-yl)oxy)-2-fluorophenyl)-5-oxo-4,5-dihydro-1H-pyrazol-3-yl)ethyl)-2-fluorophenyl)propanoic acid] | B (B: 4-8° C.) |
| CSc1cc(C(C)c2cccc(CCC(=O)O)c2F)nn1-c1cc(Oc2c(F)cc3[nH]ccc3c2F)ccc1F (stereo not shown) [Compound 52, 3-(3-(1-(1-(5-((4,6-difluoro-1H-indol-5-yl)oxy)-2-fluorophenyl)-5-(methylthio)-1H-pyrazol-3-yl)ethyl)-2-fluorophenyl)propanoic acid] | C (C: ≤4° C.) |
| CC(c1noc(-c2cc(Oc3c(F)cc4[nH]ccc4c3F)ccc2F)n1)c1cccc(CCC(=O)O)c1F (stereo not shown) [Compound 53, 3-(3-(1-(5-(5-((4,6-difluoro-1H-indol-5-yl)oxy)-2-fluorophenyl)-1,2,4-oxadiazol-3-yl)ethyl)-2-fluorophenyl)propanoic acid] | B (B: 4-8° C.) |
| Cc1c(Oc2cccc(-c3nn(Cc4cccc(CCC(=O)O)c4)cc3F)c2)c(F)cc2[nH]ccc12 [Compound 54, 3-(3-((4-fluoro-3-(3-((6-fluoro-4-methyl-1H-indol-5-yl)oxy)phenyl)-1H-pyrazol-1-yl)methyl)phenyl)propanoic acid] | B (B: 4-8° C.) |
| CC(c1cccc(CC(=O)O)c1F)n1cc(F)c(-c2ccc(F)c(Oc3c(F)cc4[nH]ccc4c3S(C)(=O)=O)c2)n1 (stereo not shown) [Compound 55, 2-(2-fluoro-3-(1-(4-fluoro-3-(4-fluoro-3-((6-fluoro-4-(methylsulfonyl)-1H-indol-5-yl)oxy)phenyl)-1H-pyrazol-1-yl)ethyl)phenyl)acetic acid] | A (A: T ≥8° C.) |
| O=C(O)CCc1cccc(Cc2cc(NCCO)n(-c3cc(Oc4c(F)cc5[nH]ccc5c4F)ccc3F)n2)c1 [Compound 56, 3-(3-((1-(5-((4,6-difluoro-1H-indol-5-yl)oxy)-2-fluorophenyl)-5-((2-hydroxyethyl)amino)-1H-pyrazol-3-yl)methyl)phenyl) propanoic acid] | B (B: 4-8° C.) |
| O=C(O)CCc1cccc(Cc2cc(N3CCCCC3=O)n(-c3cc(Oc4c(F)cc5[nH]ccc5c4F)ccc3F)n2)c1 [Compound 57, 3-[3-[[1-[5-[(4,6-difluoro-1H-indol-5-yl)oxy]-2-fluoro-phenyl]-5-(2-oxo-1-piperidyl)pyrazol-3-yl]methyl]phenyl]propanoic acid] | C (C: ≤4° C.) |
| O=C(O)CCc1cccc(Cc2cc(N3CCCC3=O)n(-c3cc(Oc4c(F)cc5[nH]ccc5c4F)ccc3F)n2)c1 [Compound 58, 3-[3-[[1-[5-[(4,6-difluoro-1H-indol-5-yl)oxy]-2-fluoro-phenyl]-5-(2-oxopyrrolidin-1-yl)pyrazol-3-yl]methyl]phenyl]propanoic acid] | C (C: ≤4° C.) |
| CC(c1cccc(CCC(=O)O)c1F)c1nn(-c2cc(Oc3c(F)cc4[nH]ccc4c3F)ccc2F)c2c1CCC2 (stereo not shown) [Compound 59, 3-[3-[1-[1-[5-[(4,6-difluoro-1H-indol-5-yl)oxy]-2-fluoro-phenyl]-5,6-dihydro-4H-cyclopenta[c]pyrazol-3-yl]ethyl]-2-fluoro-phenyl]propanoic acid] | C (C: ≤4° C.) |
